Experimental data as given in the supplement of paper PMC13380429.

Columns and labels:
[1] = tested on: A549-ACE2 infected with SARS-CoV-2; test: morphology score (similarity to uninfected cells); higher = more like uninfected cells; details: 24 h
[2] = tested on: A549-ACE2; test: drug-induced phospholipidosis relative to tamoxifen; higher = more phospholipidosis
[3] = tested on: U2OS; test: relative viability EC50 (midpoint between 100% and the lowest measured viability); higher = less toxic; details: 72 h
[4] = tested on: HepG2; test: as above; details: 72 h
[5] = tested on: A549-ACE2 infected with SARS-CoV-2; test: cell count relative to DMSO; higher = less toxic; details: 24 h
[6] = tested on: A549-ACE2 infected with SARS-CoV-2; test: SARS-CoV-2 infection rate relative to DMSO; higher = more infection; details: 24 h
[7] = tested on: Vero E6; test: drug sensitivity score (DSS) for viability; higher = more toxic; extreme values may be limits of the assay; details: 72 h
[8] = tested on: U2OS; test: as above; details: 72 h
[9] = tested on: HepG2; test: as above; details: 72 h
[10] = tested on: Calu-3; test: as above; details: 72 h
[11] = tested on: Caco-2; test: as above; details: 72 h
[12] = tested on: Vero E6; test: cell viability relative to DMSO; higher = less toxic; details: 72 h
[13] = tested on: U2OS; test: as above; details: 72 h
[14] = tested on: HepG2; test: as above; details: 72 h
[15] = tested on: Calu-3; test: as above; details: 72 h
[16] = tested on: Caco-2; test: as above; details: 72 h
[17] = tested on: A549-ACE2; test: phospholipidosis EC50; higher = less potent phospholipidosis inducer
[18] = tested on: Vero E6; test: relative viability EC50 (midpoint between 100% and the lowest measured viability); higher = less toxic; details: 72 h
[19] = tested on: Calu-3; test: as above; details: 72 h
[20] = tested on: Caco-2; test: as above; details: 72 h

Cn1cc(-c2ccc3c(c2)CCN3C(=O)Cc2cccc(C(F)(F)F)c2)c2c(N)ncnc21
Details	SARS-CoV-2 infection rate, [6] [%]	cell count, [5] [%]	cell viability, [12] [%]	cell viability, [13] [%]	cell viability, [14] [%]	cell viability, [15] [%]	cell viability, [16] [%]	morphology score, [1]
1 nM	–	–	95.3	103	87.4	106	100	–
10 nM	–	–	94	97.4	98.3	94	86.6	–
0.1 µM	102	97	–	–	–	–	–	0.02
100 nM	–	–	96.6	102	84	96	66.9	–
0.3 µM	96	104	–	–	–	–	–	0.18
1 µM	102	105	–	–	–	–	–	0.12
1000 nM	–	–	107	95.2	101	92.5	103	–
3 µM	87	112	–	–	–	–	–	0.4
10000 nM	–	–	67.1	77.3	48.6	68.9	61.6	–

drug-induced phospholipidosis [%], [2]
Details	0.3 µM	0.833333 µM	3.33333 µM	6.66667 µM	10 µM	30 µM
24 h	1.57	0.73	1.92	3.67	12.1	28.6
48 h	3.63	1.52	3.02	3.48	8.65	18.6
72 h	2.2	0.314	1.31	3.34	7.89	22.2

Details	drug sensitivity score	relative viability EC50 [µM]
[3]	–	> 10
[4]	–	3.28
[7]	1.2	–
[8]	1.5	–
[9]	2.6	–
[10]	2.4	–
[11]	4.7	–

CN1CCC[C@@H](CC2c3ccccc3Sc3ccccc32)C1 (racemic) [metixene]
Details	SARS-CoV-2 infection rate [%]	cell count [%]	cell viability [%]	morphology score	phospholipidosis EC50 [µM]
[1], 0.1 µM	–	–	–	0.09	–
[1], 0.3 µM	–	–	–	-0.03	–
[1], 1 µM	–	–	–	0.65	–
[1], 3 µM	–	–	–	0.88	–
[5], 0.1 µM	–	106	–	–	–
[5], 0.3 µM	–	99	–	–	–
[5], 1 µM	–	110	–	–	–
[5], 3 µM	–	129	–	–	–
[6], 0.1 µM	94	–	–	–	–
[6], 0.3 µM	103	–	–	–	–
[6], 1 µM	65	–	–	–	–
[6], 3 µM	30	–	–	–	–
[12], 1 nM	–	–	96.6	–	–
[12], 10 nM	–	–	109	–	–
[12], 100 nM	–	–	105	–	–
[12], 1000 nM	–	–	101	–	–
[12], 10000 nM	–	–	74	–	–
[13], 1 nM	–	–	105	–	–
[13], 10 nM	–	–	95.3	–	–
[13], 100 nM	–	–	99.4	–	–
[13], 1000 nM	–	–	93.2	–	–
[13], 10000 nM	–	–	89.8	–	–
[14], 1 nM	–	–	104	–	–
[14], 10 nM	–	–	104	–	–
[14], 100 nM	–	–	105	–	–
[14], 1000 nM	–	–	101	–	–
[14], 10000 nM	–	–	72.3	–	–
[15], 1 nM	–	–	102	–	–
[15], 10 nM	–	–	100	–	–
[15], 100 nM	–	–	100	–	–
[15], 1000 nM	–	–	100	–	–
[15], 10000 nM	–	–	73.1	–	–
[16], 1 nM	–	–	85.9	–	–
[16], 10 nM	–	–	94.5	–	–
[16], 100 nM	–	–	94.7	–	–
[16], 1000 nM	–	–	120	–	–
[16], 10000 nM	–	–	71.9	–	–
[17], 24 h	–	–	–	–	5.44
[17], 48 h	–	–	–	–	9.46
[17], 72 h	–	–	–	–	4.98

drug-induced phospholipidosis [%], [2]
Details	0.3 µM	0.833333 µM	3.33333 µM	6.66667 µM	10 µM	30 µM
24 h	0.41	9.1	52.9	78.2	91.4	121
48 h	4.61	5.46	39.9	75.4	93.7	145
72 h	4.08	3.27	28.5	66.5	82.7	–

Details	drug sensitivity score	relative viability EC50 [µM]
[3]	–	> 10
[7]	0.9	–
[8]	0	–
[9]	1.1	–
[10]	1.1	–
[11]	0.6	–

NCCc1c[nH]c2ccc(C(N)=O)cc12 [5-carboxamidotryptamine]
Details	SARS-CoV-2 infection rate, [6] [%]	cell count, [5] [%]	cell viability, [12] [%]	cell viability, [13] [%]	cell viability, [14] [%]	cell viability, [15] [%]	cell viability, [16] [%]	morphology score, [1]
1 nM	–	–	98.8	101	105	93.2	97.8	–
10 nM	–	–	104	97.8	96.2	104	96.5	–
100 nM	–	–	103	99.1	95.2	96	102	–
0.3 µM	100	98	–	–	–	–	–	-0.09
1000 nM	–	–	97.4	98	102	104	102	–
3 µM	99	96	–	–	–	–	–	-0.06
10 µM	101	105	–	–	–	–	–	-0.11
10000 nM	–	–	97.2	99.5	98.9	102	98.7	–
30 µM	93	102	–	–	–	–	–	0.09

drug-induced phospholipidosis [%], [2]
Details	0.3 µM	0.833333 µM	3.33333 µM	6.66667 µM	10 µM	30 µM
24 h	1.09	-2.6	-3.13	-2	-0.66	2.03
48 h	2.16	-0.39	0.18	-1.08	-0.13	2.67
72 h	3.22	-1.61	-0.768	-1.96	0.562	3.08

Details	drug sensitivity score	relative viability EC50 [µM]
[3]	–	> 10
[4]	–	> 10
[7]	0	–
[8]	0	–
[9]	0	–
[10]	0	–
[11]	0	–
[18]	–	> 10
[19]	–	> 10
[20]	–	> 10
